How the values were obtained:
Rattus norvegicus [1] = organism: Rattus norvegicus; test: Ratio of Ki for Nicotinic acetylcholine receptor alpha4-beta2 and Vesicular Monoamine Transporter ([…])
[2] = biological target: Synaptic vesicular amine transporter (Rattus norvegicus, UniProt Q01827); assay type: cell membranes, Membrane
Description: Inhibition of 5 nM [3H]DTBZ binding to Vesicular Monoamine Transporter (VAMT2) of rat vesicle membranes

[3] = biological target: Neuronal acetylcholine receptor; alpha4/beta2 (Rattus norvegicus, UniProt P09483+P12390); test: Inhibition of 3 nM [3H]NIC binding to Nicotinic acetylcholine receptor alpha4-beta2 of rat striatal membranes; assay type: cell membranes, Membrane
Rattus norvegicus [4] = organism: Rattus norvegicus; test: Ratio of Ki for Nicotinic acetylcholine receptor alpha-7 and Vesicular monoamine transporter ([…])
[5] = biological target: Neuronal acetylcholine receptor subunit alpha-7 (Rattus norvegicus, UniProt Q05941); assay type: cell membranes, Membrane
Sequence of Neuronal acetylcholine receptor subunit alpha-7 (Q05941 whole entry): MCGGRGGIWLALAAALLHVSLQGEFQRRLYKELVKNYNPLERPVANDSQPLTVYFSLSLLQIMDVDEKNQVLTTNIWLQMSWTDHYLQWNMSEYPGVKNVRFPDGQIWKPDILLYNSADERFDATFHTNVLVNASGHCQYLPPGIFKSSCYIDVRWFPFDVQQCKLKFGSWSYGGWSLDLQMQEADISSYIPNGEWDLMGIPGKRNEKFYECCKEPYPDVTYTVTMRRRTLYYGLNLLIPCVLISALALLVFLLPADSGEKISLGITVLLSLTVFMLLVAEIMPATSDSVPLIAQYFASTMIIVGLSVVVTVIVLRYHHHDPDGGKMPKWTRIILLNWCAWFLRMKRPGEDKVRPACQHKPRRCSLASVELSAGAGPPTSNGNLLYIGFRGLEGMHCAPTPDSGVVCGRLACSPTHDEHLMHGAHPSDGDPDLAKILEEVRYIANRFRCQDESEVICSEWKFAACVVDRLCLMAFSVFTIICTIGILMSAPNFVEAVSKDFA
Description: Inhibition of 3 nM [3H]-MLA binding to Nicotinic acetylcholine receptor alpha7 of rat brain membranes

Sequence of Synaptic vesicular amine transporter (Q01827 whole entry): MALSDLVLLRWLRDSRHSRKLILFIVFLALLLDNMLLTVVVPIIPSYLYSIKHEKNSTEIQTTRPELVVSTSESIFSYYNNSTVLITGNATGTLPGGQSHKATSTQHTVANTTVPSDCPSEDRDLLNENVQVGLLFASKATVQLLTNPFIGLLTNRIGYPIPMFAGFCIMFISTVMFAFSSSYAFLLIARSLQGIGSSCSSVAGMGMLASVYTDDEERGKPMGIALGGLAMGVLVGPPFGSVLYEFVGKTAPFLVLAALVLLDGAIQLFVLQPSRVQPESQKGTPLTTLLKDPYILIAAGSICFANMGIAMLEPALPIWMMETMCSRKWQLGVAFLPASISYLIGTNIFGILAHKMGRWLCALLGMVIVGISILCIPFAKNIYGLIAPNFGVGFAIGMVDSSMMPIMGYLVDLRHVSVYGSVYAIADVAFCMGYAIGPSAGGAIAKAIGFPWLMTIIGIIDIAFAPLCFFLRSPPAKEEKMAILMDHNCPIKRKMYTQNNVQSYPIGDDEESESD
Sequence of Neuronal acetylcholine receptor; alpha4/beta2 (P09483 whole entry): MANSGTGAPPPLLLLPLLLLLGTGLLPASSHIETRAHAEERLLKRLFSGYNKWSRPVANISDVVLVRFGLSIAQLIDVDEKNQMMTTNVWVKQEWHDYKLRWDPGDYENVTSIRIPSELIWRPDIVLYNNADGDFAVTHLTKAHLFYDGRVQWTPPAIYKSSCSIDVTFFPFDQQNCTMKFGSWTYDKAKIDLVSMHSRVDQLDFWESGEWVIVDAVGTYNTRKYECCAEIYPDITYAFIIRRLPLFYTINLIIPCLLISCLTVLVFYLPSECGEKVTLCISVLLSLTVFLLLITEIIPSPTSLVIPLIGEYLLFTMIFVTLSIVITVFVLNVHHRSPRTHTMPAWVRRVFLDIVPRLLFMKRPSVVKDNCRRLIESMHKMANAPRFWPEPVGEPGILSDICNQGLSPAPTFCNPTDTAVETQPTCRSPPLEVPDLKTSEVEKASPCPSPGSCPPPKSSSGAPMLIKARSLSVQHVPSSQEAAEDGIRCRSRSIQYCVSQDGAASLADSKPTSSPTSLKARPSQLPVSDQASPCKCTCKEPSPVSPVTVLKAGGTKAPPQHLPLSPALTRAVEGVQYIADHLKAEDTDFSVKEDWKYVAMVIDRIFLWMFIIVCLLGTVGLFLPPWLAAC
Sequence of Neuronal acetylcholine receptor; alpha4/beta2 (P12390 whole entry): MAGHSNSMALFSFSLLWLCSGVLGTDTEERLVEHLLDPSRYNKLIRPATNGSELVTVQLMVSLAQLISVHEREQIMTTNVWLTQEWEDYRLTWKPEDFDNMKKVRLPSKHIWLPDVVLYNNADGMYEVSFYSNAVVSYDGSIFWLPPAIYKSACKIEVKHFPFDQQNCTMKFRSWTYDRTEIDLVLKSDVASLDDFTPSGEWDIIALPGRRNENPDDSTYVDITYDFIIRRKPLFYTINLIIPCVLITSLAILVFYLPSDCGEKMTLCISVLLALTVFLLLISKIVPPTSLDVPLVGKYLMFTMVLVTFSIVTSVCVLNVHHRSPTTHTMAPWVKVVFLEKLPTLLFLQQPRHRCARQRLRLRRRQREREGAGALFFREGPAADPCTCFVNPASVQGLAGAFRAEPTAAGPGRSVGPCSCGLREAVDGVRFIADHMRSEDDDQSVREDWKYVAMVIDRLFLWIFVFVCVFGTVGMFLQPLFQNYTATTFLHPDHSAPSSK

Compound	Ki ratio (Rattus norvegicus [1])	Ki [2]	Ki [3]	Ki ratio (Rattus norvegicus [4])	Ki [5]
CN1[C@H](/C=C/c2ccccc2)CCC[C@@H]1/C=C/c1ccccc1	1.2	9.88 µM	11.6 µM	> 10.1	> 100 µM
CN1[C@@H](CCc2ccccc2)CCC[C@@H]1CCc1ccccc1	–	–	–	–	40 µM
C[N+]1(C)[C@H](/C=C/c2ccccc2)CCC[C@H]1/C=C/c1ccccc1	> 10.8	9.24 µM	> 100 µM	1.6	15.1 µM
CN1[C@H](/C=C/c2ccccc2)CCC[C@H]1/C=C/c1ccccc1	> 5.2	19.4 µM	> 100 µM	> 5.2	> 100 µM
CN1[C@H](CCc2ccccc2)CCC[C@@H]1/C=C/c1ccccc1	–	–	> 100 µM	–	–
CN(CCCc1ccccc1)CCCc1ccccc1	> 32.3	3.07 µM	> 100 µM	> 32.3	> 100 µM
CN1[C@@H](CCc2cccc3ccccc23)CCC[C@H]1CCc1cccc2ccccc12	> 159	0.63 µM	> 100 µM	> 159	> 100 µM
CN1[C@@H](/C=C/c2ccccc2)CCC[C@@H]1/C=C/c1ccccc1	> 14.1	7.09 µM	> 100 µM	> 14.1	> 100 µM
CN1[C@@H](CCc2ccccc2)C=CC[C@H]1/C=C/c1ccccc1	> 26	3.84 µM	> 100 µM	> 26	> 100 µM
CN1[C@@H](CCc2ccccc2)CCC[C@H]1/C=C/c1ccccc1	–	–	> 100 µM	–	–
CN1[C@H](CCc2ccccc2)CCC[C@H]1/C=C/c1ccccc1	–	–	> 100 µM	–	–
C[N+]1(C)[C@@H](CCc2ccccc2)CCC[C@H]1CCc1ccccc1	1.5	16.5 µM	24.3 µM	0.6	9.63 µM
C(=C\[C@@H]1CCC[C@@H](/C=C/c2ccccc2)N1)/c1ccccc1.C(=C\[C@H]1CCC[C@H](/C=C/c2ccccc2)N1)/c1ccccc1	> 19.3	5.19 µM	> 100 µM	> 19.3	> 100 µM
CN(C/C=C/c1ccccc1)C/C=C/c1ccccc1	> 42.2	2.37 µM	> 100 µM	> 42.2	> 100 µM
c1ccc2c(CC[C@H]3CCC[C@@H](CCc4cccc5ccccc45)N3)cccc2c1	> 21.4	4.68 µM	> 100 µM	> 21.4	> 100 µM
CN1[C@@H](CCc2ccc3ccccc3c2)CCC[C@H]1CCc1ccc2ccccc2c1	> 49.3	2.03 µM	> 100 µM	> 49.3	> 100 µM
CN1[C@@H](CCc2ccccc2)CCC[C@@H]1/C=C/c1ccccc1	–	–	> 100 µM	–	–
CN1[C@H](CCc2ccccc2)CCC[C@H]1CCc1ccccc1	–	–	–	–	25.3 µM
c1ccc2cc(CC[C@H]3CCC[C@@H](CCc4ccc5ccccc5c4)N3)ccc2c1	–	> 100 µM	> 100 µM	–	> 100 µM
C(=C\[C@@H]1CCC[C@H](/C=C/c2ccccc2)N1)/c1ccccc1	> 48.1	–	> 100 µM	> 48.1	> 100 µM
C[N+]1(C)[C@H](/C=C/c2ccccc2)CCC[C@@H]1/C=C/c1ccccc1	–	> 100 µM	> 100 µM	< 0.3	33.8 µM
CN[C@H](CCCCCCc1ccccc1)CCc1ccccc1	> 25.2	3.96 µM	> 100 µM	> 25.2	> 100 µM
CN1[C@H](CCc2ccccc2)CC=C[C@@H]1CCc1ccccc1	–	–	> 100 µM	–	–
C[N+]1(C)[C@H](CCc2ccccc2)CCC[C@H]1CCc1ccccc1	0.7	24.6 µM	16.2 µM	0.1	2.39 µM
CN[C@@H](CCCCCCc1ccccc1)CCc1ccccc1	> 19.2	5.21 µM	> 100 µM	> 19.2	> 100 µM
CN1[C@@H](CCc2ccccc2)CCC[C@H]1CCc1ccccc1 [LOBELANE]	–	–	–	–	26 µM
c1ccc(CC[C@H]2CCC[C@@H](CCc3ccccc3)N2)cc1	> 43.3	2.31 µM	> 100 µM	> 43.3	> 100 µM

From ChEMBL document CHEMBL1140262 (J Med Chem, 2005)
